Measurements: patent US11085056B2, “Transfection complexes and methods of using the same” (MOLECULAR TRANSFER, INC., priority 2015, dated 2021)

What was measured:
Human Fibroblast Cells = assay: Transfection of human fibroblast cells with DOTMA/DOPE/peptide and eGFP plasmid, fluorescent plate reader; assay type: cell-based; details: DOTMA/DOPE 1:1 plus peptide with RRRRRRRRRRRR (SEQ ID NO: 109) at n terminus; EF1Alpha eGFP plasmid; 0.01 mL complex; 42 hours
Method: (§1) Cells were plated to so that on the day of transfection the cells were 60-70% confluent in 96 well tissue culture plates. A DOMTA/DOPE Lipid solution (1:1 molar ratio) at 2 mg/mL in water were mixed with an equal volume of surface ligand peptides that had the nucleic acid binding moiety RRRRRRRRRRRR (SEQ ID NO: 109) covalently linked to the n terminus of each peptide during peptide synthesis. Peptides were at 2 mg/mL in water. The DOTMA/DOPE and the surface ligand peptide solution the transfection reagent was diluted 1 to 1 (v/v) in water. DOMTA/DOPE/PEPTIDE solutions were added to 0.1 mL of a plasmid DNA solution (EF1Alpha eGFP plasmid) at 5 μg/mL in OptiMEM. Lipofectamine 2000 was obtained from Life Technologies.
(§2) All solutions were at room temperature. A volume of 0.2 mL of a 5 μg/mL solution of DNA was aliquoted into each well of a non-tissue cultured treated plate. 4.0 μL of transfection reagents were added to DNA solutions respectively. The transfection reagent and DNA solution was mixed by pipetting up and down twice. Transfection complexes were formed for 10 minutes. After 10 minutes, 0.01 or 0.02 mL of the transfection complex was added to cells. HuVEC, HeLa, human adult keratinocytes, human primary adult fibroblast, and rat cortical neurons all respectively received 0.01 mL of the tramsfectopm complex. Human skeletal muscle cells, mouse C2C12 cells, Jurkat, and THP-1 cells received 0.02 mL of the transfection complex. Cells were incubated for 42 hours at 37° C. at 5% CO2. Plates were read on a fluorescent plate reader. Cells were also examined visually under a microscope to assess the extent of transfection (in terms of the percent of cells transfected) with a fluorescent microscope. Other modes of analysis, for example quantification with B-galactosidase or luciferase reports plasmids can also be used. […] Surface ligand that caused increase expression of GFP over the lipid DOTMA with no surface ligand were considered to enhance transfection or had higher % cells transfected were considered to enhance transfection. Peptides that gave greater than 2 fold enhancement are noted in bold and could be further optimized by adding different transfection enhancers or could be used with different cationic lipids or polymers.

HuVec Cells = assay: Transfection of HuVec cells with DOTMA/DOPE/peptide and eGFP plasmid, fluorescent plate reader; assay type: cell-based; details: DOTMA/DOPE 1:1 plus peptide with RRRRRRRRRRRR (SEQ ID NO: 109) at n terminus; EF1Alpha eGFP plasmid; 0.01 mL complex; 42 hours
Method: as §1, §2

HeLa Cells [1] = assay: Transfection of HeLa cells with DOTMA/DOPE/peptide and eGFP plasmid, fluorescent plate reader; assay type: cell-based; details: DOTMA/DOPE 1:1 plus peptide with RRRRRRRRRRRR (SEQ ID NO: 109) at n terminus; EF1Alpha eGFP plasmid; 0.01 mL complex; 42 hours
Method: as §1, §2

some examined cell types = assay: Transfection expression and % cells transfected over the no peptide control; assay type: cell-based; details: on some examined cell types
Method: as §1, §2

NL-1 iPS Cells = assay: Transfection of NL-1 iPS cells with DOTMA/DOPE/peptide and eGFP plasmid, fluorescent plate reader; assay type: cell-based; details: DOTMA/DOPE 1:1 plus peptide with RRRRRRRRRRRR (SEQ ID NO: 109) at n terminus; EF1Alpha eGFP plasmid; 42 hours
Method: as §1, §2

HeLa Cells [2] = assay: Transfection of HeLa cells with DOTMA/SEQ ID NO: 72/peptide compared with Lipofectamine 2000; assay type: cell-based; details: fusogenic peptide 0.1 mg/mL
Method: as §1, §2
The fusogenic peptide was added to the DOMTA/peptide formulation to achieve a final concentration of 0.1 mg/mL to see if transfection reagents were further enhanced by the addition of a fusogenic peptide and could provide higher transfection efficiency into HeLa cells and expression than the commercially available Lipofectamine 2000.

Jurkat Cells = assay: Transfection of Jurkat cells with DOTMA/DOPE/peptide and eGFP plasmid, fluorescent plate reader; assay type: cell-based; details: DOTMA/DOPE 1:1 plus peptide with RRRRRRRRRRRR (SEQ ID NO: 109) at n terminus; EF1Alpha eGFP plasmid; 0.02 mL complex; 42 hours
Method: as §1, §2

C2C12 Cells = assay: Transfection of C2C12 cells with DOTMA/DOPE/peptide and eGFP plasmid, fluorescent plate reader; assay type: cell-based, mouse; details: DOTMA/DOPE 1:1 plus peptide with RRRRRRRRRRRR (SEQ ID NO: 109) at n terminus; EF1Alpha eGFP plasmid; 0.02 mL complex; 42 hours
Method: as §1, §2

[3] = 0.1 μL of DOTMA/SEQ ID NO: 72/Peptide in well of a 96 well plate
[4] = 0.2 μL of DOTMA/SEQ ID NO: 72/Peptide in well of a 96 well plate
[5] = 0.3 μL of DOTMA/SEQ ID NO: 72/Peptide in well of a 96 well plate
[6] = 0.4 μL of DOTMA/SEQ ID NO: 72/Peptide in well of a 96 well plate

Substance | RF (Relative Fluorescence) of Transfection of Human Fibroblast Cells (Human Fibroblast Cells) | RF (Relative Fluorescence) of Transfection of HuVec Cells (HuVec Cells) | RF (Relative Fluorescence) of Transfection of HeLa Cells (HeLa Cells [1]) | transfection expression and the % cells transfected over the no peptide control (some examined cell types) | RF (Relative Fluorescence) of Transfection of NL-1 iPS Cells (NL-1 iPS Cells) | RF (Relative Fluorescence), DOTMA/SEQ ID NO: 72/Peptide, HeLa Cells (HeLa Cells [2]; [3]) | RF (Relative Fluorescence), DOTMA/SEQ ID NO: 72/Peptide, HeLa Cells (HeLa Cells [2]; [4]) | RF (Relative Fluorescence), DOTMA/SEQ ID NO: 72/Peptide, HeLa Cells (HeLa Cells [2]; [5]) | RF (Relative Fluorescence), DOTMA/SEQ ID NO: 72/Peptide, HeLa Cells (HeLa Cells [2]; [6]) | RF (Relative Fluorescence) of Transfection of Jurkat Cells (Jurkat Cells) | RF (Relative Fluorescence) of Transfection of C2C12 Cells (C2C12 Cells)
218 (SPPRRARVT; Peptidic transfection agent) [compound 218] | 11230 | 14827 | 11179 | increased | 17049 | 12686 | 13103 | 10151 | 10081 | 21451 | 3706
219 (RKRLQVQLSIRT; Peptidic transfection agent) [compound 219] | 7389 | 6237 | 13721 | increased | 5770 | 12135 | 13841 | 13531 | 11712 | 10762 | 1346
230 (WQPPRARI; Peptidic transfection agent) [compound 230] | 11771 | 9067 | 8944 | increased | 14524 | – | – | – | – | 10229 | 2606
237 (KNSFMALYLSKG; Peptidic transfection agent) [compound 237] | 2184 | 2302 | 21288 | increased | 8632 | 8986 | 9753 | 8015 | 8288 | 1501 | 6491
239 (KNSFMALYLSKGRLVFALG; Peptidic transfection agent) [compound 239] | 4084 | 1404 | 2717 | increased | 4129 | – | – | – | – | 2343 | 10620
256 (RQVFQVAYIIIKA; Peptidic transfection agent) [compound 256] | 2656 | 3030 | 2243 | increased | 1825 | – | – | – | – | 3322 | 3207
327 (VAEIDGIEL; Peptidic transfection agent) [compound 327] | 4662 | 21018 | 5345 | increased | 31383 | – | – | – | – | 14546 | 2043
332 (TWYKIAFQRNRK; Peptidic transfection agent) [compound 332] | 5178 | 4221 | 9198 | increased | 8725 | – | – | – | – | 3052 | 537
338 (GTPGPQGIA; Peptidic transfection agent) [compound 338] | 5625 | 12000 | 6241 | increased | 17288 | – | – | – | – | 4475 | 2290
345 (TAGSCLRKFSTMFLF; Peptidic transfection agent) [compound 345] | 2816 | 2939 | 8493 | increased | 7836 | – | – | – | – | 2462 | 6569
352 (RIQNLLKITNLRIKFVK; Peptidic transfection agent) [compound 352] | 3059 | 3130 | 32126 | increased | 11628 | – | – | – | – | 3150 | 3324
354 (SINNTAVMQRLT; Peptidic transfection agent) [compound 354] | 4998 | 19284 | 4403 | increased | 24043 | – | – | – | – | 16705 | 1912
359 (KAFDITYVRLKF; Peptidic transfection agent) [compound 359] | 3206 | 3024 | 3136 | increased | 5548 | – | – | – | – | 1880 | 5693
361 (YIGSR; Peptidic transfection agent) [compound 361] | 7014 | 6017 | 3698 | increased | 9363 | – | – | – | – | 7006 | 585
